From ChEMBL document CHEMBL4138123, “Design, synthesis and biological evaluation of novel pyrazolochalcones as potential modulators of PI3K/Akt/mTOR pathway and inducers of apoptosis in breast cancer cells” (Eur J Med Chem, 2017)

Key:
Type in all cases: functional
[1] = tested on: OVCAR-4; assay: Cytotoxicity against human OVCAR4 cells assessed as cell growth at 0.1 uM after 48 hrs by sulforhodamine B assay relative to control; conditions: OVCAR-4, 48 h, read-out: Activity
[2] = tested on: COLO 205; assay: Cytotoxicity against human COLO205 cells assessed as cell growth at 0.1 uM after 48 hrs by sulforhodamine B assay relative to control; conditions: COLO 205, 48 h, read-out: Activity
[3] = tested on: UACC-62; assay: Cytotoxicity against human UACC62 cells assessed as cell growth at 1 uM after 48 hrs by sulforhodamine B assay relative to control; conditions: UACC-62, 48 h, read-out: Activity
[4] = tested on: TK-10; assay: Cytotoxicity against human TK10 cells assessed as cell growth at 1 uM after 48 hrs by sulforhodamine B assay relative to control; conditions: TK-10, 48 h, read-out: Activity
[5] = tested on: OVCAR-3; assay: Cytotoxicity against human OVCAR3 cells assessed as growth inhibition after 48 hrs by sulforhodamine B assay; conditions: OVCAR-3, 48 h
[6] = tested on: SN12C; assay: Cytotoxicity against human SN12C cells assessed as cell growth at 10 uM after 48 hrs by sulforhodamine B assay relative to control; conditions: read-out: Activity
[7] = tested on: IGROV-1; assay: Cytotoxicity against human IGROV1 cells assessed as cell growth at 0.1 uM after 48 hrs by sulforhodamine B assay relative to control; conditions: IGROV-1, 48 h, read-out: Activity
[8] = tested on: HCC 2998; assay: Cytotoxicity against human HCC2998 cells assessed as cell growth at 100 uM after 48 hrs by sulforhodamine B assay relative to control; conditions: HCC 2998, 48 h, read-out: Activity
[9] = tested on: K562; assay: Cytotoxicity against human K562 cells assessed as growth inhibition after 48 hrs by sulforhodamine B assay; conditions: K562, 48 h
[10] = tested on: Hs-578T; assay: Cytotoxicity against human Hs 578T cells assessed as cell growth at 0.01 uM after 48 hrs by sulforhodamine B assay relative to control; conditions: read-out: Activity
[11] = tested on: M14; assay: Cytotoxicity against human M14 cells assessed as cell growth at 10 uM after 48 hrs by sulforhodamine B assay relative to control; conditions: M14, 48 h, read-out: Activity
[12] = tested on: RXF 393; assay: Cytotoxicity against human RXF393 cells assessed as cell growth at 100 uM after 48 hrs by sulforhodamine B assay relative to control; conditions: RXF 393, 48 h, read-out: Activity
[13] = tested on: CCRF-CEM; assay: Cytotoxicity against human CCRF-CEM cells assessed as growth inhibition after 48 hrs by sulforhodamine B assay
[14] = tested on: SK-OV-3; assay: Cytotoxicity against human SKOV3 cells assessed as cell growth at 0.01 uM after 48 hrs by sulforhodamine B assay relative to control; conditions: SK-OV-3, 48 h, read-out: Activity
[15] = tested on: SW-620; assay: Cytotoxicity against human SW620 cells assessed as cell growth at 10 uM after 48 hrs by sulforhodamine B assay relative to control; conditions: SW-620, 48 h, read-out: Activity
[16] = tested on: NCI-H23; assay: Cytotoxicity against human NCI-H23 cells assessed as cell growth at 10 uM after 48 hrs by sulforhodamine B assay relative to control; conditions: NCI-H23, 48 h, read-out: Activity
[17] = tested on: T47D; assay: Cytotoxicity against human T47D cells assessed as cell growth at 100 uM after 48 hrs by sulforhodamine B assay relative to control; conditions: read-out: Activity
[18] = tested on: OVCAR-4; assay: Cytotoxicity against human OVCAR4 cells assessed as growth inhibition after 48 hrs by sulforhodamine B assay; conditions: OVCAR-4, 48 h
[19] = tested on: OVCAR-4; assay: Cytotoxicity against human OVCAR4 cells assessed as cell growth at 1 uM after 48 hrs by sulforhodamine B assay relative to control; conditions: OVCAR-4, 48 h, read-out: Activity
[20] = tested on: MDA-MB-435; assay: Cytotoxicity against human MDA-MB-435 cells assessed as cell growth at 0.1 uM after 48 hrs by sulforhodamine B assay relative to control; conditions: MDA-MB-435, 48 h, read-out: Activity
[21] = tested on: MDA-MB-231; assay: Cytotoxicity against human MDA-MB-231 cells assessed as cell growth at 0.1 uM after 48 hrs by sulforhodamine B assay relative to control; conditions: MDA-MB-231, 48 h, read-out: Activity
[22] = tested on: Hs-578T; assay: Cytotoxicity against human Hs 578T cells assessed as growth inhibition after 48 hrs by sulforhodamine B assay
[23] = tested on: IGROV-1; assay: Cytotoxicity against human IGROV1 cells assessed as growth inhibition after 48 hrs by sulforhodamine B assay; conditions: IGROV-1, 48 h
[24] = tested on: HT-29; assay: Cytotoxicity against human HT-29 cells assessed as cell growth at 10 uM after 48 hrs by sulforhodamine B assay relative to control; conditions: HT-29, 48 h, read-out: Activity
[25] = tested on: OVCAR-3; assay: Cytotoxicity against human OVCAR3 cells assessed as cell growth at 100 uM after 48 hrs by sulforhodamine B assay relative to control; conditions: OVCAR-3, 48 h, read-out: Activity
[26] = tested on: BT-549; assay: Cytotoxicity against human BT549 cells assessed as cell growth at 100 uM after 48 hrs by sulforhodamine B assay relative to control; conditions: BT-549, 48 h, read-out: Activity
[27] = tested on: UACC-62; assay: Cytotoxicity against human UACC62 cells assessed as cell growth at 10 uM after 48 hrs by sulforhodamine B assay relative to control; conditions: UACC-62, 48 h, read-out: Activity
[28] = tested on: SK-OV-3; assay: Cytotoxicity against human SKOV3 cells assessed as cell growth at 100 uM after 48 hrs by sulforhodamine B assay relative to control; conditions: SK-OV-3, 48 h, read-out: Activity
[29] = tested on: UO-31; assay: Cytotoxicity against human UO31 cells assessed as cell growth at 1 uM after 48 hrs by sulforhodamine B assay relative to control; conditions: UO-31, 48 h, read-out: Activity
[30] = tested on: OVCAR-8; assay: Cytotoxicity against human OVCAR8 cells assessed as cell growth at 0.01 uM after 48 hrs by sulforhodamine B assay relative to control; conditions: OVCAR-8, 48 h, read-out: Activity
[31] = tested on: NCI-H460; assay: Cytotoxicity against human NCI-H460 cells assessed as cell growth at 10 uM after 48 hrs by sulforhodamine B assay relative to control; conditions: NCI-H460, 48 h, read-out: Activity
[32] = tested on: SR; assay: Cytotoxicity against human SR cells assessed as cell growth at 0.01 uM after 48 hrs by sulforhodamine B assay relative to control; conditions: read-out: Activity
[33] = tested on: OVCAR-8; assay: Cytotoxicity against human OVCAR8 cells assessed as cell growth at 10 uM after 48 hrs by sulforhodamine B assay relative to control; conditions: OVCAR-8, 48 h, read-out: Activity
[34] = tested on: MDA-MB-435; assay: Cytotoxicity against human MDA-MB-435 cells assessed as cell growth at 10 uM after 48 hrs by sulforhodamine B assay relative to control; conditions: MDA-MB-435, 48 h, read-out: Activity
[35] = tested on: NCI/ADR-RES; assay: Cytotoxicity against human NCI/ADR-RES cells assessed as cell growth at 10 uM after 48 hrs by sulforhodamine B assay relative to control; conditions: read-out: Activity
[36] = tested on: SNB-19; assay: Cytotoxicity against human SNB19 cells assessed as cell growth at 0.1 uM after 48 hrs by sulforhodamine B assay relative to control; conditions: SNB-19, 48 h, read-out: Activity

COc1ccc(C(=O)/C=C/c2cc(-c3ccc(OC)c(OC)c3)n[nH]2)cc1OC
growth at 0.1 µM [1]: 86% | growth at 0.1 µM [2]: 98% | growth at 1 µM [3]: 89% | growth at 1 µM [4]: 106% | GI50 [5]: 1.96 µM | TGI [5]: 4.72 µM | growth at 10 µM [6]: -40% | growth at 0.1 µM [7]: 104% | growth at 100 µM [8]: -91% | GI50 [9]: 0.619 µM | TGI [9]: > 100 µM | growth at 0.01 µM [10]: 93% | growth at 10 µM [11]: -58% | growth at 100 µM [12]: -90% | GI50 [13]: 0.364 µM | TGI [13]: 5.52 µM | growth at 0.01 µM [14]: 83% | growth at 10 µM [15]: -24% | growth at 10 µM [16]: -30% | growth at 100 µM [17]: -9% | GI50 [18]: 1.92 µM | TGI [18]: 8.15 µM | growth at 1 µM [19]: 72% | growth at 0.1 µM [20]: 94% | growth at 0.1 µM [21]: 99% | GI50 [22]: 3.76 µM | TGI [22]: > 100 µM | GI50 [23]: 3.13 µM | TGI [23]: 53.8 µM | growth at 10 µM [24]: -28% | growth at 100 µM [25]: -64% | growth at 100 µM [26]: -89% | growth at 10 µM [27]: -57% | growth at 100 µM [28]: -8% | growth at 1 µM [29]: 72% | growth at 0.01 µM [30]: 99% | growth at 10 µM [31]: -20% | growth at 0.01 µM [32]: 94% | growth at 10 µM [33]: 8% | growth at 10 µM [34]: -69% | growth at 10 µM [35]: 16% | growth at 0.1 µM [36]: 91%

COc1ccc(C(=O)/C=C/c2cc(-c3ccc4c(c3)OCO4)n[nH]2)cc1OC
growth at 0.1 µM [1]: 94% | growth at 0.1 µM [2]: 103% | growth at 1 µM [3]: 98% | growth at 1 µM [4]: 97% | LC50 [5]: 14.3 µM | TGI [5]: 4.61 µM | growth at 10 µM [6]: 11% | growth at 0.1 µM [7]: 93% | growth at 100 µM [8]: -86% | LC50 (concentration killing 50% of cells) [9]: > 100 µM | TGI [9]: 16.7 µM | growth at 0.01 µM [10]: 96% | growth at 10 µM [11]: 38% | growth at 100 µM [12]: -95% | LC50 (concentration killing 50% of cells) [13]: > 100 µM | TGI [13]: 9.58 µM | growth at 0.01 µM [14]: 99% | growth at 10 µM [15]: -43% | growth at 10 µM [16]: 28% | growth at 100 µM [17]: -31% | LC50 [18]: > 100 µM | TGI [18]: 40.3 µM | growth at 1 µM [19]: 65% | growth at 0.1 µM [20]: 99% | growth at 0.1 µM [21]: 96% | GI50 [22]: 2.69 µM | LC50 [22]: > 100 µM | TGI [22]: 8.21 µM | LC50 [23]: 68 µM | TGI [23]: 9.2 µM | growth at 10 µM [24]: 2% | growth at 100 µM [25]: -67% | growth at 100 µM [26]: -90% | growth at 10 µM [27]: 19% | growth at 100 µM [28]: -23% | growth at 1 µM [29]: 79% | growth at 0.01 µM [30]: 99% | growth at 10 µM [31]: -56% | growth at 0.01 µM [32]: 90% | growth at 10 µM [33]: -27% | growth at 0.1 µM [36]: 89%
